Tested on: gene expression in tert keratinocytes
Test: Signature free connectivity mapping (C-map) similarity to CAST
Details: Concentration Tested 0.01% (wt. %); Fisher Discriminant Analysis
Description: Signature Free Method of Querying Perturbagens Using Connectivity Mapping to Test Similarity Among Different Varieties of Perturbagens
The signature-free query method describes methodologies for identifying gene expression similarities among different perturbagens, such as cosmetic actives and/or natural extracts in an already existing tert connectivity map database. “Connectivity map” and “C-map” refer broadly to devices, systems, articles of manufacture, and methodologies for identifying relationships between cellular phenotypes or cosmetic conditions, gene expression, and perturbagens, such as cosmetic actives. […]
The tert C-map database consists of normalized gene expression data of approximately 3200 perturbagens. […] For each individual perturbagen, the output of the normalization includes an expression value for each probe analyzed in the gene expression profiling experiment. […]
The data matrix is analyzed using multivariate statistical analysis. Though described herein with reference to regularized Fisher Discriminant Analysis using a kernel version of the projection matrix, those of ordinary skill in the art will readily appreciate that other forms of multivariate statistical analysis may be employed in other embodiments. […]

Row | Compound | Similarity (distance) Score from CAST
1 | C[C@H]1[C@H](C)CC[C@]2(C(=O)O)CC[C@]3(C)C(=CC[C@@H]4[C@@]5(C)C[C@@H](O)[C@H](O)[C@@](C)(CO)[C@@H]5[C@H](O)C[C@]43C)[C@H]12 [Madecassic acid] | 0.770
2 | Madecassoside | −0.031
